The NIST ThermoML archive (doi:10.1016/j.jct.2004.06.009)
± gives the expanded uncertainty stated by the source.

Experiment: Molar enthalpy of transition or fusion

| Molar enthalpy of transition or fusion (Crystal 1) | Molar enthalpy of transition or fusion (Crystal 2) | Molar enthalpy of transition or fusion (Crystal) | Compound |
| --- | --- | --- | --- |
| 0.368 ± 0.0098 kcal/mol | 2.225 ± 0.00717 kcal/mol | – | CC12CC3CC(C1)CC(C)(C3)C2 [1,3-dimethyladamantane] |
| – | – | 2.696 ± 0.012 kcal/mol | CCC12CC3CC(CC(C3)C1)C2 [1-ethyladamantane] |
